Measurements: patent publication US20190216835A1 (priority 2016, published 2019)

Test system: Zika virus strain MR766
Assay type: cell-based
Details: for effect on replication of Zika virus (percent infected cells, FIG. 1): Vero cells infected 48 h with ZIKV MR766, MOI 0.3-0.5, compound added at time of infection, DMSO control
Protocol: FIG. 1 is a bar graph showing the results of experiments wherein Vero cells were infected for 48 h with Zika virus MR766 and stained for DNA and double stranded viral RNA. The indicated compounds at the indicated concentrations were added at the time of infection. Mean percent infected cells of n=3 experiments are shown +/−SD.
FIG. 2 is a set of images of Vero cells infected for 48 h with Zika virus MR766 and stained for DNA (blue) and double stranded viral RNA (green). Either Lanatoside 6 nM or DMSO (v/v) was added at the time of infection. Mean percent infected cells of n=3 experiments are shown +/−SD.
The effects of a number of small molecules previously reported to be effective in inhibiting replication of related viruses were evaluated on replication of the Zika virus using an immunofluorescence readout for viral protein expression. Molecules tested included Ivermectin 18898-1G; Mycophenolic acid M3536-50MG; Brequinar SML0113-5MG; Sodium Oxamate O2751-5G; Chloroquine C6628-25G; Hydroxychloroquine H0915-5MG; and Lanatoside C L2261-100MG.
Cells: Vero cells (ATCC, CCL-81) were cultured in complete Dulbecco's Modified Eagle Media (Sigma) with 10% FBS (Invitrogen) and 2 mM L-glutamine (Invitrogen).
Viruses: Zika virus strain MR766 was kindly provided by Dr. Robert Tesh at the World Reference Center for Emerging Viruses and Arboviruses at the University of Texas Medical Branch in Galveston Tex. MR766 was obtained originally from a Rhesus macaque in Uganda in 1947. Viruses were propagated in Vero cells (ATCC) (Dick et al., 1952) and the titer determined by standard plaque assays and immunofluorescence imaging assays for E protein expression.
Infection assays: Vero cells were plated the night before in a 384-well plate format. The following day the cells were infected with ZIKV MR766 at an MOI of 0.3-0.5 in the presence of the indicated compounds or the DMSO control (v/v). 48 hr post-infection the cells are fixed with formalin, permeabilized with 0.1% Triton-X100 and immunostained using the 4G2 monoclonal antibody against the E protein. The cells were then incubated with an Alexa Fluor 488 goat anti-mouse secondary and stained for DNA with Hoechst 33342. The cells were imaged on an automated Image Express Micro (IXM) microscope at 4× magnification. Images were analyzed using the MetaXpress software program to determine the total cells per well, and the percentage of infected cells in each well.

Row | Compound | effect on replication of Zika virus (percent infected cells, FIG. 1) | stopping replication of the virus (FIG. 2) (Vero cells infected 48 h with ZIKV MR766, Lanatoside 6 nM vs DMSO added at time of infection)
1 | 22,23-dihydroavermectin B1a+22,23-dihydroavermectin B1b [ivermectin] | significant effect | 
2 | CC(=O)O[C@H]1C[C@H](O[C@H]2[C@@H](O)C[C@H](O[C@H]3[C@@H](O)C[C@H](O[C@H]4CC[C@@]5(C)[C@H](CC[C@@H]6[C@@H]5C[C@@H](O)[C@]5(C)[C@@H](C7=CC(=O)OC7)CC[C@]65O)C4)O[C@@H]3C)O[C@@H]2C)O[C@H](C)[C@H]1O[C@@H]1O[C@H](CO)[C@@H](O)[C@H](O)[C@H]1O [Lanatoside C, 3β-[4-O-β-D-Glycopyranosyl-4-O-(3-O-acetyl-β-D-digitoxopyranosyl)-4-O-β-D-digitoxopyranosyl-β-D-digitoxopyranosyl]-12β,14-dihydroxy-5β,14β-card-20(22)-enolid] | significant effect | effective at stopping replication of the virus
3 | NC(=O)c1ncn([C@@H]2O[C@H](CO)[C@@H](O)[C@H]2O)n1 [ribavirin, 1-[(2R,3R,4S,5R)-3,4-dihydroxy-5-(hydroxymethyl)oxolan-2-yl]-1H-1,2,4-triazole-3-carboxamide] | significant effect | 
